Source: patent publication US11053226B2, “KRAS G12C inhibitors and methods of using the same” (Amgen Inc., priority 2018, dated 2021)
Read-outs that look alike come from different tables or passages of the source.

What was measured:
[1] = system: Phosphorylation of ERK1/2 in MIA PaCa-2 cells; experiment: Phospho-ERK1/2 MSD Assay; type: cell-based; conditions: MiaPaCa-2 cells
[2] = molecular target: GDP-bound KRAS protein (aa 1-169), containing both G12C and C118A amino acid substitutions (Homo sapiens (Human), UniProt P01116, C118A/G12C); experiment: Coupled Nucleotide Exchange Assay; type: biochemical
GDP-bound KRAS protein (aa 1-169), containing both G12C and C118A amino acid substitutions, sequence (P01116 other isoform, or with tags, fused parts or gaps G12C/C118A): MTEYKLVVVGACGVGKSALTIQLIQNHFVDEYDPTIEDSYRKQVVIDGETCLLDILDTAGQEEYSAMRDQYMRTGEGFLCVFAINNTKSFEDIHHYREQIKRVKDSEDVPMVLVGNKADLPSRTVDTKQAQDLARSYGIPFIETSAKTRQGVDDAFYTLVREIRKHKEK
Method: For compounds in Table 9, the following assay conditions were employed:
Coupled Nucleotide Exchange Assay:
The assay plates were then read on a PerkinElmer EnVision Multilabel Reader, using AlphaScreen® technology, and data were analyzed using a 4-parameter logistic model to calculate IC50 values.

[3] = system: Phosphorylation of ERK1/2 in A549 cells; experiment: Phospho-ERK1/2 MSD Assay (A549); type: cell-based
[4] = Homo sapiens, MIA PaCa-2, 4 h, read-out: pERK IC50 (4 h, MiaPaCa-2), 4 h compound treatment
[5] = read-out: Coupled Exchange IC50 (2 h), 2 h compound pre-incubation
[6] = Homo sapiens, A549, 4 h, read-out: pERK IC50 (4 h, A549), 4 h compound treatment
[7] = read-out: Coupled Exchange IC50 (20 h), 20 h compound pre-incubation
[8] = Homo sapiens, MIA PaCa-2, read-out: pERK IC50 (4 h), 4 h compound treatment
[9] = Homo sapiens, read-out: pERK IC50 (4 h), 4 h compound treatment
[10] = read-out: pERK IC50 (4 h, MiaPaCa-2), 4 h compound treatment
[11] = read-out: pERK IC50 (4 h, A549), 4 h compound treatment
[12] = read-out: Coupled Exchange IC50 (5 min), 5 min compound pre-incubation

Row | Compound | IC50 [1, 4] [µM] | IC50 [2, 5] [µM] | IC50 [3, 6] [µM] | IC50 [2, 7] [µM] | IC50 [1, 8] [µM] | IC50 [3, 9] [µM] | IC50 [1, 10] [µM] | IC50 [3, 11] [µM] | IC50 [2, 12] [µM]
1 | C=CC(=O)N1CC(N(C)C(=O)Cn2c(C)c(C(=O)N3CCN(c4ccc(C(F)(F)F)cn4)CC3)c3cc(Br)ccc32)C1 [Example 10] | 1.58 | 0.82 | 43.4 | – | – | – | – | – | –
2 | C=CC(=O)N1CC(N(C)C(=O)Cn2c(C)c(C(=O)N3CCN(c4ccc(C#N)cn4)C[C@@H]3C)c3cc(Br)ccc32)C1 [Example 52] | 4.83 | 0.53 | > 100 | – | – | – | – | – | –
3 | C=CC(=O)N1CC(NC(=O)Cn2cc(C(=O)NCCc3ccc(Cl)cc3Cl)c3cc(Cl)cc(Cl)c32)C1 [Example 178] | > 100 | 0.63 | > 100 | 0.22 | – | – | – | – | –
4 | C=CC(=O)N1CC(NC(=O)Cn2cc(I)c3cc(Br)c(C)cc32)C1 [Example 95] | – | 5.79 | – | 1.09 | 16.7 | > 100 | – | – | –
5 | C=CC(=O)N1CC(NC(=O)Cn2c3c(c4cc([N+](=O)[O-])ccc42)CCCC3)C1 [Example 143] | – | 4.53 | – | 0.85 | – | – | 44.9 | > 100 | –
6 | C=CC(=O)N1CC(NC(=O)Cn2c(CC)c(C(=O)N3CCc4c(cccc4OC)C3)c3cc(Cl)cc(C)c32)C1 [Example 1-2, 2-(5-Chloro-2-ethyl-3-((5-methoxy-3,4-dihydro-2(1H)-isoquinolinyl)carbonyl)-7-methyl-1H-indol-1-yl)-N-(1-(2-propenoyl)-3-azetidinyl)acetamide] | 0.13 | 0.06 | > 100 | – | – | – | – | – | –
7 | C=CC(=O)N1CC(NC(=O)Cn2c3c(c4cc([N+](=O)[O-])ccc42)CCCCC3)C1 [Example 135] | – | 4.25 | – | 0.63 | – | – | 38.7 | > 100 | –
8 | C=CC(=O)N1CC(N(C)C(=O)Cn2c(C3CC3)c(C(=O)N3CCN(c4ccc(C#N)cn4)CC3)c3cc(Cl)cc(C)c32)C1 [Example 19] | 1.87 | 0.61 | > 100 | – | – | – | – | – | –
9 | C=CC(=O)N1CC(NC(=O)Cn2cc(-c3ccccc3-c3ccccc3)c3cc(Cl)ccc32)C1 [Example 112] | – | 2.36 | – | 0.71 | 25.9 | > 100 | – | – | 3.95
10 | C=CC(=O)N1CC(NC(=O)Cn2c(C)c(-c3ccccc3Cc3ccccc3)c3cc(Cl)ccc32)C1 [Example 56] | – | 0.88 | – | – | 6.17 | > 100 | – | – | 4.77
11 | C=CC(=O)N1CC(NC(=O)Cn2c(C)c(C(=O)N3CCc4c(cccc4OC)C3)c3cc(Br)ccc32)C1 [Example 13] | 1.68 | 0.3 | > 100 | 0.11 | – | – | – | – | –
12 | C=CC(=O)N1CC(NC(=O)Cn2cc(I)c3cc(Br)cc(C)c32)C1 [Example 153] | – | 1.58 | – | 0.26 | 51.8 | > 100 | – | – | –
13 | C=CC(=O)N1CC(NC(=O)Cn2cc(-c3cccnc3OC(C)C)c3cc(Br)ccc32)C1 [Example 105] | – | 6.45 | – | – | 22 | 11.3 | – | – | –
14 | C=CC(=O)N1CC(NC(=O)Cn2c(C)c(C(=O)N3CCc4c(cccc4OC)C3)c3cc(Cl)ccc32)C1 [Example 41] | 3.55 | 0.37 | > 100 | 0.12 | – | – | – | – | –
15 | C=CC(=O)N1CC(NC(=O)Cn2cc(-c3ccccc3C)c3cc(Cl)ccc32)C1 [Example 78] | – | 5.49 | – | 1.2 | 11.7 | > 100 | – | – | 33.1
16 | C=CC(=O)N1CC(N(C)C(=O)Cn2cc(I)c3cc(Br)ccc32)C1 [Example 43] | – | 4.65 | – | 0.44 | 3.82 | > 33.3 | – | – | 36.6
17 | C=CC(=O)N1CC(NC(=O)Cn2cc(C(=O)N3CCc4c(cccc4OC)C3)c3cc(Cl)cc(Cl)c32)C1 [Example 69] | 9.39 | 0.19 | > 100 | 0.13 | – | – | – | – | –
18 | C=CC(=O)N1CC(NC(=O)Cn2cc(-c3ccc(F)cc3F)c3cc(Br)ccc32)C1 [Example 137] | – | 6.9 | – | 1.13 | 40.4 | 16.5 | – | – | –
19 | C=CC(=O)N1CC(NC(=O)Cn2cc(C(=O)N3CCc4c(C)cccc4C3)c3cc(Cl)cc(Cl)c32)C1 [Example 74] | 11.1 | 0.22 | > 100 | 0.17 | – | – | – | – | –

Row | Compound | IC50 [1, 4] [µM] | IC50 [2, 5] [µM] | IC50 [3, 6] [µM] | IC50 [2, 7] [µM] | IC50 [1, 8] [µM] | IC50 [3, 9] [µM] | IC50 [1, 10] [µM] | IC50 [3, 11] [µM] | IC50 [2, 12] [µM]
20 | C=CC(=O)N1CC(N(C)C(=O)Cn2cc(C(=O)N3CCc4c(cccc4OC)C3)c3cc(Br)ccc32)C1 [Example 107] | 23.1 | 0.59 | > 100 | 0.18 | – | – | – | – | –
21 | C=CC(=O)N1CC(NC(=O)Cn2cc(I)c3ccc(-c4ccccc4Cl)cc32)C1 [Example 150] | – | 2.92 | – | 0.59 | 50.8 | > 100 | – | – | –
22 | C=CC(=O)N1CC(NC(=O)Cn2cc(C(=O)N3CCc4ccc(C)cc4C3)c3cc(Br)ccc32)C1 [Example 122] | 31.4 | 0.69 | > 100 | 0.17 | – | – | – | – | –
23 | C=CC(=O)N1CC(NC(=O)Cn2cc(C(=O)N3CCc4c(Br)cc(C)cc4C3)c3cc(Cl)cc(Cl)c32)C1 [Example 92] | 16.5 | 0.39 | > 100 | 0.18 | – | – | – | – | –
24 | C=CC(=O)N1CC(NC(=O)Cn2c(C)c(C(=O)N3CCc4c(cccc4OC)C3)c3cc(Br)cc(C)c32)C1 [Example 2-1, 2-(5-Bromo-3-((5-methoxy-3,4-dihydro-2(1H)-isoquinolinyl)carbonyl)-2,7-dimethyl-1H-indol-1-yl)-N-(1-(2-propenoyl)-3-azetidinyl)acetamide] | 0.3 | 0.11 | > 100 | 0.11 | – | – | – | – | –
25 | C=CC(=O)N1CC(NC(=O)Cn2c3c(c4cc(Br)ccc42)CC(c2ccccc2)CC3)C1 (stereo not drawn) [Example 133] | – | 7.06 | – | 1.33 | 37.9 | > 100 | – | – | –
26 | C=CC(=O)N1CC(NC(=O)Cn2c(C3CC3)c(C(=O)N3CCOC4(CCC4)C3)c3cc(Cl)cc(C)c32)C1 [Example 1-6, 2-(5-Chloro-2-cyclopropyl-7-methyl-3-(5-oxa-8-azaspiro[3.5]nonan-8-ylcarbonyl)-1H-indol-1-yl)-N-(1-(2-propenoyl)-3-azetidinyl)acetamide] | 0.67 | 0.72 | > 100 | – | – | – | – | – | –
27 | C=CC(=O)N1CC(NC(=O)Cn2cc(-c3ccccc3OC)c3cc(Br)ccc32)C1 [Example 151] | – | 4.33 | – | 0.92 | 51.2 | 14.6 | – | – | –
28 | C=CC(=O)N1CC(NC(=O)Cn2c3c(c4cc(Br)ccc42)CN(C(=O)OCc2ccccc2)CC3)C1 [Example 141] | – | 7.25 | – | 1.51 | 42.4 | 19.3 | – | – | –
29 | C=CC(=O)N1CC(NC(=O)Cn2c(C)c(-c3ccccc3C)c3cc(Cl)ccc32)C1 [Example 121] | – | 1.57 | – | 0.42 | 31.2 | > 100 | – | – | 12.4
30 | C=CC(=O)N1CC(N(C)C(=O)Cn2c(C)c(C(=O)N3CCc4c(cccc4OC)C3)c3cc(Br)cc(C)c32)C1 [Example 4-5, 2-(5-Bromo-3-((5-methoxy-3,4-dihydro-2(1H)-isoquinolinyl)carbonyl)-2,7-dimethyl-1H-indol-1-yl)-N-methyl-N-(1-(2-propenoyl)-3-azetidinyl)acetamide] | 0.27 | 0.09 | > 100 | – | – | – | – | – | –
31 | C=CC(=O)N1CC(NC(=O)Cn2cc(C(=O)NCCc3ccc(Cl)cc3Cl)c3cc(Br)cc(C)c32)C1 [Example 162] | 81.5 | 0.76 | > 100 | 0.26 | – | – | – | – | –
32 | C=CC(=O)N1CC(NC(=O)Cn2cc(C3CC3)c3ccc(-c4ccccc4Cl)cc32)C1 [Example 146] | – | 3.8 | – | 0.74 | 47.1 | 74.2 | – | – | –
33 | C=CC(=O)N1CC(NC(=O)Cn2c(C3CC3)c(C(=O)N3CCc4c(ccnc4OC)C3)c3cc(Cl)cc(C)c32)C1 [Example 1-4, 2-(5-Chloro-2-cyclopropyl-3-((5-methoxy-3,4-dihydro-2,6-naphthyridin-2(1H)-yl)carbonyl)-7-methyl-1H-indol-1-yl)-N-(1-(2-propenoyl)-3-azetidinyl)acetamide] | 0.15 | 0.08 | > 100 | 0.01 | – | – | – | – | 0.27
34 | C=CC(=O)N1CC(N2CCC(n3cc(I)c4cc(Cl)ccc43)C2=O)C1 (stereo not drawn) [Example 90] | – | 4.3 | – | 0.48 | 16 | > 100 | – | – | 61.1
35 | C=CC(=O)N1CC(NC(=O)Cn2c(C)c(-c3ccccc3CC)c3cc(Cl)ccc32)C1 [Example 54] | – | 0.65 | – | 0.2 | 5.88 | > 33.3 | – | – | 4.37
36 | C=CC(=O)N1CC(NC(=O)Cn2c(C)c(C(=O)N3CCc4ccccc4C3(C)C)c3cc(Br)cc(C)c32)C1 [Example 35] | 3.06 | 0.29 | 55.7 | – | – | – | – | – | –
37 | C=CC(=O)N1CC(NC(=O)Cn2c(C)c(-c3cccc4nc(C)ccc34)c3cc(Cl)ccc32)C1 [Example 101] | – | 1.11 | – | – | 20.3 | 56.8 | – | – | –
38 | C=CC(=O)N1CC(NC(=O)C(C)(C)n2c(C)c(C(=O)N3CCc4c(cccc4OC)C3)c3cc(Cl)ccc32)C1 [Example 131] | – | 5.54 | – | 1.04 | 37 | 50.6 | – | – | –
